{"source": "paper doi:10.1101/2020.02.20.957365v1", "about": "“Tree bark scrape fungus: A potential source of laccase for application in bioremediation of non-textile dyes” (biorxiv, 2020)", "tested_on": "T1, laccase of Aspergillus sp. HB_RZ4", "T1 construct": "native extracellular enzyme purified from culture supernatant (ammonium sulfate, DEAE-cellulose, Sephadex G-100); about 62 kDa by SDS-PAGE", "assay": "ABTS oxidation at […] nm, Michaelis-Menten and Lineweaver-Burk", "type": "biochemical", "conditions": "apparent Km; ABTS 10-200 mM; assay buffer 100 mM sodium acetate pH 4.0; free enzyme", "data": [{"compound": "CCn1c(=NN=c2sc3cc(S(=O)(=O)O)ccc3n2CC)sc2cc(S(=O)(=O)O)ccc21", "note": "[ABTS, 2,2’-azino-bis (3-ethylbenzothiazoline 6-sulphonic acid)]", "values": [{"measurement": "Km", "value": 26.8, "unit": "mM"}]}]}
